For the test, the target named is glucose-6-phosphate dehydrogenase-6-phosphogluconolactonase (PfGluPho), Plasmodium falciparum 3D7. As to the kind of experiment: inhibition of P. falciparum G6PD-lactonase – biochemical, fluorescence intensity, dose response, set 3, SAR follow-up (AID 602131). The following applies: recombinant PfGluPho, NADPH resazurin-diaphorase fluorescence. (Alamar Blue is a resazurin reagent that responds to reducing activity.)

pIC50: −log10 of the molar value. The source made the active and inactive calls.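 Rule for the calls: active = IC50 at or below 20 µM; inactive = the rest.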

Take `CCN1CCC[C@H]1CNC(=O)c1ccc2c(c1)NC(=O)/C(=C/c1ccccc1F)S2`: the negative-log IC50 (pIC50) is 5.18.

For the compound `O=C(NCCN1CCCCC1)c1ccc2c(c1)NC(=O)c1ccccc1S2`, the IC50 entry is “inactive”.

On to `CCN1CCCC1CNC(=O)c1ccc2c(c1)NC(=O)C(Cc1ccccc1F)S2` (centres undefined), for which the IC50 was > 80 µM (inactive).

`CCN1CCC[C@@H]1CNC(=O)c1ccc2c(c1)NC(=O)c1ccccc1S2`: the negative logarithm of the IC50 (pIC50) is 5.30.

In the case of `NC1CCN(C(=O)c2ccc3c(c2)NC(=O)/C(=C/c2ccccc2F)S3)C1` (centres undefined), the IC50 result is “inactive”.

Turning to `CCN1CCC[C@@H]1CNC(=O)c1ccc2c(c1)NC(=O)/C(=C/c1ccccc1F)S2`, the pIC50 was 6.05.

With `CCN1CCCC1CNC(=O)c1ccc2c(c1)NC(=O)/C(=C/c1ccc3ccccc3c1)S2` (centres undefined), the negative logarithm of the IC50 (pIC50) is 5.62.

For the compound `CCN1CCC[C@H]1CNC(=O)c1ccc2c(c1)NC(=O)c1ccccc1S2`, the IC50 entry was “inactive”.

In the case of `CCN1CCCC1CNC(=O)c1ccc2c(c1)NC(=O)/C(=C/c1ccc(F)cc1)S2` (centres undefined), the pIC50 was 5.85.

For the compound `O=C(NCCNC1CCCCC1)c1ccc2c(c1)NC(=O)c1ccccc1S2`, the IC50 entry is “inactive”.

As to `CCN(CC)CCCC(C)Nc1ccnc2cc(Cl)ccc12` (centres undefined), the IC50 is > 80 µM (inactive).

For the compound `CN(C)c1ccccc1CNC(=O)c1ccc2c(c1)NC(=O)/C(=C/c1ccccc1F)S2`, the IC50 is > 80 µM (inactive).

As to `CCC(C)N1CCCC1CNC(=O)c1ccc2c(c1)NC(=O)c1ccccc1S2` (centres undefined), the pIC50 is 5.03.

With `NCCNC(=O)c1ccc2c(c1)NC(=O)c1ccccc1S2`, the IC50 is > 80 µM (inactive).

For the compound `CCN(CC)CCNC(=O)c1ccc2c(c1)NC(=O)/C(=C/c1ccccc1F)S2`, the pIC50 was 5.16.

Regarding `CC(C)(C)OC(=O)N1CCCC1CNC(=O)c1ccc2c(c1)NC(=O)/C(=C/c1ccccc1F)S2` (centres undefined), the IC50 is > 80 µM (inactive).

Take `O=C(NCCN1CCOCC1)c1ccc2c(c1)NC(=O)c1ccccc1S2`: the IC50 was > 80 µM (inactive).

Consider `CCC(C)N(CCNC(=O)c1ccc2c(c1)NC(=O)c1ccccc1S2)C1CCCCC1` (centres undefined), for which the negative-log IC50 (pIC50) is 4.85.

Turning to `NC1CCN(C(=O)c2ccc3c(c2)NC(=O)c2ccccc2S3)C1` (centres undefined), the IC50 was > 80 µM (inactive).

In general, pIC50 refers to the IC50 on a negative log10 scale, so that one unit is a factor of ten. The term IC50 denotes the point on the concentration scale where inhibition reaches its midpoint.

These data come from PubChem BioAssay AID602131 (Sanford-Burnham Center for Chemical Genomics, 2011).
